In this test the target is [Pyruvate dehydrogenase (acetyl-transferring)] kinase isozyme 1, mitochondrial (Homo sapiens, UniProt Q15118). Kind of test: Binding affinity to pyruvate dehydrogenase kinase 1 (unknown origin) incubated for 90 mins by VER-00160364 probe based fluorescence polarization assay. (In fluorescence polarisation assays a small probe gives low polarisation when free and higher when bound to something large.)

What is called IC50 is the concentration that inhibits the measured activity by half. A high value points to weaker potency.

Sequence of [Pyruvate dehydrogenase (acetyl-transferring)] kinase isozyme 1, mitochondrial (Q15118 whole entry): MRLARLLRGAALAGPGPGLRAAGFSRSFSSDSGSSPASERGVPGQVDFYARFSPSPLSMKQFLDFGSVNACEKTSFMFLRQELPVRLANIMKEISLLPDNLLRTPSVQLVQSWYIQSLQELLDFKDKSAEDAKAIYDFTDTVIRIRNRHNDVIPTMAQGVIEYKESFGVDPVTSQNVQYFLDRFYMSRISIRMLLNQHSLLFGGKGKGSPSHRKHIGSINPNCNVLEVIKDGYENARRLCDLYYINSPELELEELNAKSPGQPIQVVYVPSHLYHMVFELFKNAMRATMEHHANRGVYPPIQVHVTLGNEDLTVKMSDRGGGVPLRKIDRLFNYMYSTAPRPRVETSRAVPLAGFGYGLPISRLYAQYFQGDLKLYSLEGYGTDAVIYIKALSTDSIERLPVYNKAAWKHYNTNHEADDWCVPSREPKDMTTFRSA

Compound `Cc1cc2ccccc2nc1-c1ccc(N(Cc2cc(F)cc(F)c2)C(=O)c2ccc(O)cc2O)cc1` displayed an IC50 of 1000 nM. Consider `Cc1cnc(C)c(-c2ccc(N(Cc3ccccc3)C(=O)c3ccc(O)cc3O)cc2)n1`, for which the IC50 was found to be 100 nM.

In turn, `Cc1cc2[nH]c(=O)[nH]c2cc1-c1ccc(N(Cc2ccccc2)C(=O)c2ccc(O)cc2O)cc1` gave an IC50 of 10000 nM. The same measure for `Cc1cc2ccccc2nc1-c1ccc(N(Cc2ccc(F)c(F)c2)C(=O)c2ccc(O)cc2O)cc1`: 100 nM. Next, `O=C(c1ccc(O)cc1O)N(Cc1ccccc1)c1ccc(-c2ccccc2Cl)cc1`: 10 nM; `CCc1nccnc1-c1ccc(N(Cc2ccccc2)C(=O)c2ccc(O)cc2O)cc1`: 100 nM; `Cc1cc2ccccc2nc1-c1ccc(N(Cc2ccc(-c3ccccc3)cc2)C(=O)c2ccc(O)cc2O)cc1`: 100 nM. Compound `Cc1c(Cl)nc(Cl)nc1-c1ccc(N(Cc2ccccc2)C(=O)c2ccc(O)cc2O)cc1` returned an IC50 of 1000 nM. The same measure for `COc1ccc2nc(-c3ccc(N(Cc4ccccc4)C(=O)c4ccc(O)cc4O)cc3)c(C)cc2c1`: 100 nM; for `Cc1cnc(Cl)nc1-c1ccc(N(Cc2ccc(CN3CCCC3)cc2)C(=O)c2ccc(O)cc2O)cc1`: 10 nM; for `O=C(c1ccc(O)cc1O)N(Cc1ccccc1)c1ccc(-c2nc3ccccc3nc2C(F)(F)F)cc1`: 1000 nM. Next, `Cc1ccc(C)c(-c2ccc(N(Cc3ccccc3)C(=O)c3ccc(O)cc3O)cc2)n1`: 10 nM; `Cc1c(-c2ccc(N(Cc3ccccc3)C(=O)c3ccc(O)cc3O)cc2)ccc2[nH]ncc12`: 1000 nM.

As for `Cc1cn(-c2ccc(-c3ccc(N(Cc4ccccc4)C(=O)c4ccc(O)cc4O)cc3)nn2)cn1`, the IC50 was determined as 1000 nM. `CCNCc1ccc(CN(C(=O)c2ccc(O)cc2O)c2ccc(-c3nc4ccccc4cc3C)cc2)cc1` displayed an IC50 of 100 nM. The same measure for `O=C(c1ccc(O)cc1O)N(Cc1ccccc1)c1ccc(-c2ccc(N3CCOCC3)nn2)cc1`: 1000 nM; for `Cc1cnc(C#N)nc1-c1ccc(N(Cc2ccccc2)C(=O)c2ccc(O)cc2O)cc1`: 100 nM.

As for `O=C(c1ccc(O)cc1O)N(Cc1ccccc1)c1ccc(-c2nncc3ccccc23)cc1`, the IC50 was determined as 1000 nM. `Cc1cnc(Cl)nc1-c1ccc(N(Cc2ccccc2)C(=O)c2cc(C(F)(F)F)c(O)cc2O)cc1` gave an IC50 of 1000 nM.

Consider `Cc1cc(N(Cc2ccccc2)C(=O)c2ccc(O)cc2O)ccc1-c1nc(Cl)ncc1C`, for which the IC50 amounted to 1000 nM.

For the compound `NC(=O)c1nc(-c2ccc(N(Cc3ccccc3)C(=O)c3ccc(O)cc3O)cc2)c2ccccc2n1`, the IC50 came to 10000 nM. The compound `Cc1nc(-c2ccc(N(Cc3ccccc3)C(=O)c3ccc(O)cc3O)cc2)c2ccccc2n1` registered an IC50 of 1000 nM. `O=C(Nc1ccc(N(Cc2ccccc2)C(=O)c2ccc(O)cc2O)cc1)NC1CCCC1` registered a concentration for half-maximal inhibition (IC50) of 10000 nM.

`O=C(c1ccc(O)cc1O)N(Cc1ccccc1)c1ccc(-c2nc(Cl)nn3cccc23)cc1` gave an IC50 of 1000 nM.

In the case of `Nc1ccc(-c2ccc(N(Cc3ccccc3)C(=O)c3ccc(O)cc3O)cc2)nn1`, the half-maximal inhibitory concentration (IC50) was determined as 100 nM.

Consider `Cc1cnc(Cl)nc1-c1ccc(N(Cc2cccc(Cn3ccnc3)c2)C(=O)c2cc(Cl)c(O)cc2O)cc1`, for which the IC50 was determined as 10 nM.

The compound `CCNC(=O)Nc1ccc(N(Cc2ccccc2)C(=O)c2ccc(O)cc2O)cc1` yielded an IC50 of 1000 nM. Next, `C#Cc1ncc(C)c(-c2ccc(N(Cc3ccccc3)C(=O)c3ccc(O)cc3O)cc2)n1`: 1000 nM; `Cc1ncc(C)c(-c2ccc(N(Cc3ccccc3)C(=O)c3cc(Cl)c(O)cc3O)cc2)n1`: 100 nM.

As for `Cc1ccc(Cl)cc1-c1ccc(N(Cc2ccccc2)C(=O)c2ccc(O)cc2O)cc1`, the concentration for half-maximal inhibition (IC50) came to 1000 nM. In turn, `O=C(c1ccc(O)cc1O)N(Cc1ccccc1)c1ccc(-c2cnc3ccccc3n2)cc1` had a half-inhibitory concentration (IC50) of 10000 nM. Compound `CNc1nccc(-c2ccc(N(Cc3ccccc3)C(=O)c3ccc(O)cc3O)cc2)n1` gave an IC50 of 10000 nM. In turn, `O=C(c1ccc(O)cc1O)N(Cc1ccccc1)c1ccc(-c2nc3ccc(Cl)cc3cc2CO)cc1` registered a half-maximal inhibitory concentration (IC50) of 1000 nM.

The compound `Cc1nccnc1-c1ccc(N(Cc2ccccc2)C(=O)c2ccc(O)cc2O)cc1` returned an IC50 of 1000 nM. The same measure for `Cc1noc(-c2ccccc2CN(C(=O)c2ccc(O)cc2O)c2ccc(-c3nc4ccccc4cc3C)cc2)n1`: 10 nM. `O=C(c1ccc(O)cc1O)N(Cc1ccccc1)c1ccc(-c2ncnc3ccc(Cl)cc23)cc1`: the IC50 was found to be 100 nM. The same measure for `Cc1cnc(Cl)nc1-c1ccc(N(Cc2ccc(C#N)cc2)C(=O)c2ccc(O)cc2O)cc1`: 100 nM; for `Cc1cc2ccccc2nc1-c1ccc(N(Cc2ccc(F)cc2)C(=O)c2ccc(O)cc2O)cc1`: 100 nM; for `Cc1cc2ccccc2nc1-c1ccc(N(Cc2cccc(F)c2)C(=O)c2ccc(O)cc2O)cc1`: 10 nM.

`O=C(c1ccc(O)cc1O)N(Cc1ccccc1)c1ccc(-c2ccc(NC3CC3)nn2)cc1` registered an IC50 of 100 nM. Next, `O=C(c1ccc(O)cc1O)N(Cc1ccccc1)c1ccc(-c2nc3ccccc3cc2CO)cc1`: 10000 nM; `COc1cnc(Cl)nc1-c1ccc(N(Cc2ccccc2)C(=O)c2ccc(O)cc2O)cc1C`: 1000 nM. Compound `Cc1cnc(-c2cccnc2)nc1-c1ccc(N(Cc2ccccc2)C(=O)c2ccc(O)cc2O)cc1` yielded an IC50 of 1000 nM. The same measure for `Cc1cncnc1-c1ccc(N(Cc2ccccc2)C(=O)c2ccc(O)cc2O)cc1`: 100 nM; for `O=C(c1ccc(O)cc1O)N(Cc1ccccc1)c1ccc(-c2ccc(N3CCCC3)nn2)cc1`: 1000 nM; for `Cc1cnc(N(C)C)nc1-c1ccc(N(Cc2ccccc2)C(=O)c2ccc(O)cc2O)cc1`: 100 nM. Turning to `CCOC(=O)c1nc(-c2ccc(N(Cc3ccccc3)C(=O)c3ccc(O)cc3O)cc2)c2ccccc2n1`, the IC50 is 10000 nM. In turn, `Cc1nccnc1-c1ccc(N(Cc2ccccc2)C(=O)c2ccc(O)cc2O)cc1F` registered an IC50 of 1000 nM. For the compound `CSc1ccc(CN(C(=O)c2ccc(O)cc2O)c2ccc(-c3nc4ccccc4cc3C)cc2)cc1`, the IC50 was determined as 100 nM. The compound `Cc1cc(N(Cc2ccccc2)C(=O)c2ccc(O)cc2O)ccc1-c1nc2cc(F)ccc2cc1C` registered an IC50 of 100 nM. `Cc1cnc(NC(C)C)nc1-c1ccc(N(Cc2ccccc2)C(=O)c2ccc(O)cc2O)cc1` returned an IC50 of 10000 nM. On to `Cc1cnc(Cl)nc1-c1ccc(N(C(=O)c2ccc(O)cc2O)C(C)c2ccccc2)cc1` (configuration not stated), for which the IC50 amounted to 1000 nM. The same measure for `Cc1cnc(Cl)nc1-c1ccc(N(Cc2ccccc2)C(=O)c2cc(Cl)c(O)cc2O)cc1`: 10 nM.

`O=C(c1ccc(O)cc1O)N(Cc1ccccc1)c1ccc(-c2nc(-c3ccsc3)nc3ccccc23)cc1` displayed an IC50 of 100 nM. The same measure for `O=C(c1ccc(O)cc1O)N(Cc1ccccc1)c1ccc(-c2nc(-c3ccccc3)nc3ccccc23)cc1`: 100 nM.

Compound `Cc1ncc(C)c(-c2ccc(N(Cc3ccccc3)C(=O)c3ccc(O)cc3O)cc2)n1` returned a concentration for half-maximal inhibition (IC50) of 100 nM. The same measure for `Cc1cc2ccccc2nc1-c1ccc(N(Cc2cccc3ccccc23)C(=O)c2ccc(O)cc2O)cc1`: 100 nM. The same measure for `N#Cc1cncnc1-c1ccc(N(Cc2ccccc2)C(=O)c2ccc(O)cc2O)cc1`: 1000 nM; for `O=C(c1ccc(O)cc1O)N(Cc1ccccc1)c1ccc(-c2ccc(-n3ccnc3)nn2)cc1`: 100 nM. The same measure for `COc1cnc(Cl)nc1-c1ccc(N(Cc2ccccc2)C(=O)c2cc(C)c(O)cc2O)cc1`: 1000 nM.

Take `Cc1cnc(Cl)nc1-c1ccc(N(C(=O)c2ccc(O)cc2O)[C@H](C)c2ccccc2)cc1`: the IC50 came out at 100 nM. Take `Cc1cc2ccccc2nc1-c1ccc(N(Cc2ccc(CN(C)C)cc2)C(=O)c2ccc(O)cc2O)cc1`: the IC50 came out at 100 nM. The same measure for `Cc1cnc(-c2ccccc2)nc1-c1ccc(N(Cc2ccccc2)C(=O)c2ccc(O)cc2O)cc1`: 1000 nM; for `Cc1cc2ccccc2nc1-c1ccc(N(Cc2ccccc2)C(=O)c2cc(Cl)c(O)cc2O)cc1`: 1000 nM. Next, `Cc1cnc(Cl)nc1-c1ccc(N(Cc2ccccc2)C(=O)c2ccc(O)cc2O)cc1F`: 100 nM; `O=C(O)c1nc(-c2ccc(N(Cc3ccccc3)C(=O)c3ccc(O)cc3O)cc2)c2ccccc2n1`: 1000 nM. In turn, `O=C(c1ccc(O)cc1O)N(Cc1ccccc1)c1ccc(-c2nc(Cl)c3c(n2)CCSC3)cc1` had an IC50 of 10 nM. Next, `Cc1nc(-c2ccc(N(Cc3ccccc3)C(=O)c3ccc(O)cc3O)cc2C)c2ccccc2n1`: 100 nM.

In turn, `Cc1cc(C(=O)N(Cc2ccccc2)c2ccc(-c3nc(Cl)ncc3C)cc2)c(O)cc1O` displayed an IC50 of 100 nM. `Cc1cc2ccccc2nc1-c1ccc(N(Cc2ccc(CN3CCCC3)cc2)C(=O)c2ccc(O)cc2O)cc1` registered an IC50 of 100 nM. The same measure for `Cc1nccn1-c1ccc(-c2ccc(N(Cc3ccccc3)C(=O)c3ccc(O)cc3O)cc2)nn1`: 10 nM; for `CSc1nc(-c2ccc(N(Cc3ccccc3)C(=O)c3ccc(O)cc3O)cc2)c2cc[nH]c2n1`: 1000 nM; for `O=C(c1ccc(O)cc1O)N(Cc1ccccc1)c1ccc(-c2ncnc3cccc(F)c23)cc1`: 1000 nM. Next, `Cc1ccc(CN(C(=O)c2ccc(O)cc2O)c2ccc(-c3nc(C)ncc3C)cc2)cc1`: 10 nM; `Cc1cc2ccccc2nc1-c1ccc(N(Cc2ccc(CN3CCOCC3)cc2)C(=O)c2ccc(O)cc2O)cc1`: 1000 nM. `Cc1cc2ccc(F)cc2nc1-c1ccc(N(Cc2ccccc2)C(=O)c2ccc(O)cc2O)cc1F`: the IC50 came out at 100 nM. `Cc1cnc(-c2cccc(F)c2)nc1-c1ccc(N(Cc2ccccc2)C(=O)c2ccc(O)cc2O)cc1` returned an IC50 of 1000 nM. In turn, `Cc1cc2ccccc2nc1-c1ccc(N(Cc2ccc(Cl)cc2)C(=O)c2ccc(O)cc2O)cc1` returned an IC50 of 1000 nM. The same measure for `O=C(Nc1ccc(N(Cc2ccccc2)C(=O)c2ccc(O)cc2O)cc1)Nc1cccnc1`: 1000 nM.

In turn, `Cc1cc(N)cnc1-c1ccc(N(Cc2ccccc2)C(=O)c2ccc(O)cc2O)cc1` had an IC50 of 100 nM. Next, `O=C(c1ccc(O)cc1O)N(Cc1ccccc1)c1ccc(-c2ncccc2CO)cc1`: 1000 nM. Take `Cc1ccc(CN(C(=O)c2ccc(O)cc2O)c2ccc(-c3nc4ccccc4cc3C)cc2)cc1`: the IC50 was 10 nM.

The values above are taken from ChEMBL document CHEMBL3727364, “Resorcinol n-aryl amide compounds, for use as pyruvate dehydrogenase kinase inhibitors” (2015).
